Literature values as cited in patent publication US20220079889A1, “USE OF CANNABANOIDS IN THE TREATMENT OF PROLIFERATIVE DIABETIC RETINOPATHY” (VERDANT PHARMACEUTICALS, LLC, priority 2020, published 2022).

Settings: typical value; cited from earlier work

Molecule | time of persistence in the target neovasculature
C=Cc1c(C)c2cc3nc(c(CC(=O)N[C@@H](CC(=O)O)C(=O)O)c4[nH]c(cc5nc(cc1[nH]2)C(C)=C5CC)c(C)c4C(=O)O)[C@@H](CCC(=O)O)[C@@H]3C [N-aspartyl chlorin e6] | about twenty
CC(=O)[O-].CC(=O)[O-].CCc1c(CC)c2cc3nc(cnc4cc(OCCOCCOCCOC)c(OCCOCCOCCOC)cc4ncc4nc(cc1[n-]2)C(CCCO)=C4C)C(C)=C3CCCO.O.[Lu+3] [lutetium texaphyrin] | about twenty
benzoporphyrin derivative [bcnzoporphyrin derivative] | about fifty
